Test results from paper PMC9578396, “Intrinsic Antibacterial Activity of Xeruborbactam In Vitro: Assessing Spectrum and Mode of Action” (Antimicrobial Agents and Chemotherapy, 2022).
≈ marks a conversion by molar mass, not a printed value. Read-outs that look alike come from different tables or passages of the source.

Columns and labels:
PBP1b = test system: PBP1b; design: method as in earlier work; conditions: value in parentheses; A. baumannii ATCC 19606; cited from earlier work
Serratia marcescens = assay: Broth microdilution MIC (CLSI), Serratia marcescens; assay type: cell-based; conditions: 10 isolates
Text: (§1) Bacterial isolates were subjected to broth microdilution susceptibility testing, performed according to Clinical and Laboratory Standards Institute (CLSI) methods ([46]), using panels prepared in-house. Meropenem was purchased from Sandoz, and all other antibiotics were from Sigma-Aldrich. Xeruborbactam was synthesized at Qpex Biopharma, San Diego, CA. Avibactam was purchased from eNovation Chemicals LLC, Bridgewater, NJ, USA; zidebactam was from MedKoo Biosciences, Inc., Morrisville, NC, and nacubactam was from Advanced ChemBlocks, Hayward, CA. Durlobactam was synthesized at Acme Bioscience, Palo Alto, CA, USA.

Enterobacterales = assay: Broth microdilution MIC (CLSI), Enterobacterales; assay type: cell-based
Text: as §1

[1] = test system: strain PAM1154 of P. aeruginosa; assay: Minimal bactericidal concentration (MBC), P. aeruginosa; assay type: cell-based; conditions: Pseudomonas aeruginosa
[2] = test system: major PBPs in total membrane preparations; assay: Bocillin FL competition PBP binding assay, probe incubation at 30°C; design: species or system E. coli, K. pneumoniae, A. baumannii, and P. aeruginosa; conditions: concentrations up to 300 μM; fluorescent probe incubation at 30°C
Experimental: (§2) Ten milliliters of overnight bacterial culture was inoculated in 1 L of LB medium and grown to an OD600 of 0.7 to 0.9. The cell pellet was washed once with 50 mL of solution containing 100 mM Na-phosphate at pH 7.0 and 100 mM NaCl and resuspended in 10 mL of the same buffer with one tablet of EDTA-free mini-protease inhibitor and 10 mg of lysozyme. Cell suspensions were incubated for 45 min at 37°C, and then 200 μL of DNase I was added along with MgSO4 (to a final concentration of 10 mM), followed by three cycles of freeze-thawing (10 min and 20 min, respectively). Four cycles of sonication at maximum power were performed next, each cycle lasting for 30 s with 1 min on ice between cycles. The cell suspension was centrifuged at 12,000 × g for 10 min at 4°C. The supernatant was collected and centrifuged at 100,000 × g for 45 min at 4°C. The pellet was washed three times with 10 mL of 100 mM Na-phosphate, pH 7.0, by resuspension and subsequent centrifugation at 100,000 × g for 10 min at 4°C. The pellet was finally resuspended in 1.5 mL of 100 mM Na-phosphate, pH 7.0, and passed several times through a Dounce homogenizer (tight pestle). […]
(§3) Five microliters of total bacterial membrane preparation was mixed with 5 μL of a test compound at a desired concentration in 100 mM Na-phosphate buffer, pH 7.0. […] IC50 values were calculated with Prism software (GraphPad).

Klebsiella oxytoca = assay: Broth microdilution MIC (CLSI), Klebsiella oxytoca; assay type: cell-based
Text: as §1

[3] = test system: strain KPM1026a of K. pneumoniae; assay: Minimal bactericidal concentration (MBC), K. pneumoniae; assay type: cell-based; conditions: Klebsiella pneumoniae
[4] = molecular target: PBP1a/PBP1b, PBP2, and PBP3; assay: Bocillin FL competition PBP binding assay, summary for two species; conditions: PBP2, and PBP3 from E. coli and K. pneumoniae, read-out: IC50 range
Experimental: as §2, §3

[5] = test system: K. pneumoniae strain KPM1026a; assay: Fluorescence microscopy, cellular morphology; assay type: cell-based, Klebsiella pneumoniae; conditions: treated at 1× and 2× MIC, 1 to 2 h, 30°C
Experimental: Single colonies of K. pneumoniae strain KPM1026a, A. baumannii strain ATCC 17978, and P. aeruginosa strain PAM1154 were picked from LB agar plates, inoculated in cation-adjusted Mueller-Hinton broth (CA-MHB), and incubated overnight at 30°C with rolling. Overnight cultures were diluted into fresh CA-MHB and incubated at 30°C, with rolling, until they reached an OD600 of ≈0.12 to 0.15 (equivalent to ~2 × 10^8 CFU/mL). Samples were then treated with compounds and incubated at 30°C, with rolling. After 1 or 2 h of treatment, cells were collected and stained with a dye mix containing FM4-64 (1 μg/mL), DAPI (4′,6-diamidino-2-phenylindole) (2 μg/mL), and SYTOX green (0.5 μM) (Molecular Probes, Invitrogen, or Thermo Fisher Scientific). Cells were transferred onto an agarose pad containing 1.2% agarose and 20% LB medium for microscopy. Microscopy was performed as previously described ([34]).

[6] = Enterobacterales, 1,028 isolates
[7] = Klebsiella oxytoca, 23 isolates

C[C@@H](O)[C@H]1C(=O)N2C(C(=O)O)=C(S[C@@H]3CN[C@H](C(=O)N(C)C)C3)[C@H](C)[C@H]12 [Meropenem]
IC50 (PBP1b): 0.5 µM

O=C(O)c1c(F)ccc2c1OB(O)[C@@H]1C[C@H]21 [Xeruborbactam]
MIC50 (Serratia marcescens): 32 µg/mL (≈ 144 µM)
MIC90 (Serratia marcescens): 32 µg/mL (≈ 144 µM)
MIC range (Serratia marcescens): 16 to 64 µg/mL
MIC50 (Enterobacterales; [6]): 16 µg/mL (≈ 72.1 µM)
MIC90 (Enterobacterales; [6]): 32 µg/mL (≈ 144 µM)
MIC range (Enterobacterales; [6]): 2 to 64 µg/mL
MIC (Enterobacterales; read-out: modal MIC): 16 µg/mL (≈ 72.1 µM)
MIC (Enterobacterales; wild-type strains of Escherichia coli or Klebsiella pneumoniae, read-out: antibacterial potency (MIC)): 8 to 16 µg/mL (≈ 36 to 72.1 µM)
MBC [1]: 32 µg/mL (≈ 144 µM)
interaction with PBPs [2]: No detectable interactions
MIC (Klebsiella oxytoca; Klebsiella oxytoca isolates, read-out: highest MIC observed): 32 µg/mL (≈ 144 µM)
MIC50 (Klebsiella oxytoca; [7]): 8 µg/mL (≈ 36 µM)
MIC90 (Klebsiella oxytoca; [7]): 16 µg/mL (≈ 72.1 µM)
MIC range (Klebsiella oxytoca; [7]): 8 to 32 µg/mL
MBC [3]: 16 µg/mL (≈ 72.1 µM)
IC50 [4]: 40 to 70 µM
cellular morphology [5]: increased cell length relative to that of the untreated controls and bulges that developed at midcell
